Where two headings read alike, the source gives them in different places.
Assays:
E. coli mL308 225 = test: In Vitro Anti-Bacterial Activity Assay (MIC), gram negative; format: cell-based; conditions: Escherichia coli, ML308225, 18 h, read-out: Antibiotic Activity Gram −
S. aureus RN450 = test: In Vitro Anti-Bacterial Activity Assay (MIC), gram positive; format: cell-based; conditions: Staphylococcus aureus, RN450, 18 h, read-out: Antibiotic Activity Gram +

Structure (SMILES) | MIC (E. coli mL308 225; MIC class, Table 3) [µg/mL] | MIC (S. aureus RN450; MIC class, Table 3) [µg/mL] | MIC (E. coli mL308 225) [µg/mL] | MIC (S. aureus RN450) [µg/mL]
CN(C)c1ccc(O)c2c1C[C@H]1C[C@H]3[C@H](N(C)C)C(O)=C(C(N)=O)C(=O)[C@@]3(O)C(O)=C1C2=O [B] | < 4 | < 4 | – | –
CN(C)c1cc(NC(=S)Nc2cccc3ccccc23)c(O)c2c1C[C@H]1C[C@H]3[C@H](N(C)C)C(O)=C(C(N)=O)C(=O)[C@@]3(O)C(O)=C1C2=O [CA] | > 4 | < 4 | – | –
CN(C)c1cc(NC(=O)Nc2ccccc2)c(O)c2c1C[C@H]1C[C@H]3[C@H](N(C)C)C(O)=C(C(N)=O)C(=O)[C@@]3(O)C(O)=C1C2=O [CB] | > 4 | < 4 | – | –
CN(C)[C@@H]1C(O)=C(C(N)=O)C(=O)[C@@]2(O)C(O)=C3C(=O)c4c(O)c(C(C)(C)C)cc(CNC(=O)c5cccnc5)c4C[C@H]3C[C@@H]12 [CE] | > 4 | > 4 | – | –
CN(C)c1cc(NC(=O)Nc2ccc(OC(F)(F)F)cc2)c(O)c2c1C[C@H]1C[C@H]3[C@H](N(C)C)C(O)=C(C(N)=O)C(=O)[C@@]3(O)C(O)=C1C2=O [CG] | > 4 | < 4 | – | –
CN(C)c1cc(NC(=O)NC(=O)c2ccccc2)c(O)c2c1C[C@H]1C[C@H]3[C@H](N(C)C)C(O)=C(C(N)=O)C(=O)[C@@]3(O)C(O)=C1C2=O [CH] | > 4 | < 4 | – | –
CN(C)c1cc(NC(=S)Nc2cc(C(F)(F)F)cc(C(F)(F)F)c2)c(O)c2c1C[C@H]1C[C@H]3[C@H](N(C)C)C(O)=C(C(N)=O)C(=O)[C@@]3(O)C(O)=C1C2=O [CI] | > 4 | < 4 | – | –
COc1ccc(CN(C)C)cc1-c1ccc(O)c2c1C[C@H]1C[C@H]3[C@H](N(C)C)C(O)=C(C(N)=O)C(=O)[C@@]3(O)C(O)=C1C2=O [CJ] | < 4 | < 4 | – | –
CN(C)[C@@H]1C(O)=C(C(N)=O)C(=O)[C@@]2(O)C(O)=C3C(=O)c4c(O)ccc(C#CCNS(C)(=O)=O)c4C[C@H]3C[C@@H]12 [CM] | > 4 | > 4 | – | –
CN(C)[C@@H]1C(O)=C(C(N)=O)C(=O)[C@@]2(O)C(O)=C3C(=O)c4c(O)ccc(-c5cccc(C(N)=O)c5)c4C[C@H]3C[C@@H]12 [CN] | < 4 | < 4 | – | –
CC(=O)Nc1ccc(C#Cc2ccc(O)c3c2C[C@H]2C[C@H]4[C@H](N(C)C)C(O)=C(C(N)=O)C(=O)[C@@]4(O)C(O)=C2C3=O)cc1 [CO] | > 4 | < 4 | – | –
CN(C)[C@@H]1C(O)=C(C(N)=O)C(=O)[C@@]2(O)C(O)=C3C(=O)c4c(O)ccc(CCCNS(C)(=O)=O)c4C[C@H]3C[C@@H]12 [CQ] | > 4 | < 4 | – | –
CC(O)CCc1ccc(O)c2c1C[C@H]1C[C@H]3[C@H](N(C)C)C(O)=C(C(N)=O)C(=O)[C@@]3(O)C(O)=C1C2=O (stereo partly drawn) [CR] | > 4 | < 4 | – | –
CCc1cc(CNC(=O)c2cccnc2)c(O)c2c1C[C@H]1C[C@H]3[C@H](N(C)C)C(O)=C(C(N)=O)C(=O)[C@@]3(O)C(O)=C1C2=O [CS] | > 4 | > 4 | – | –
CCc1cc(CN)c(O)c2c1C[C@H]1C[C@H]3[C@H](N(C)C)C(O)=C(C(N)=O)C(=O)[C@@]3(O)C(O)=C1C2=O [CT] | < 4 | > 4 | – | –
C[C@H]1c2ccc(/C=C\C(=O)NC(C)(C)C)c(O)c2C(=O)C2=C(O)[C@]3(O)C(=O)C(C(N)=O)=C(O)[C@@H](N(C)C)[C@@H]3[C@@H](O)[C@@H]21 [CU] | > 4 | > 4 | – | –
CN(C)[C@@H]1C(O)=C(C(N)=O)C(=O)[C@@]2(O)C(O)=C3C(=O)c4c(O)c(CNC(=O)c5cccnc5)cc(CCC5CCCCC5)c4C[C@H]3C[C@@H]12 [CV] | > 4 | < 4 | – | –

Structure (SMILES) | MIC (E. coli mL308 225; MIC class, Table 3) [µg/mL] | MIC (S. aureus RN450; MIC class, Table 3) [µg/mL] | MIC (E. coli mL308 225) [µg/mL] | MIC (S. aureus RN450) [µg/mL]
CN(C)c1cc(C#Cc2ccc(N)cc2)c(O)c2c1C[C@H]1C[C@H]3[C@H](N(C)C)C(O)=C(C(N)=O)C(=O)[C@@]3(O)C(O)=C1C2=O [CX] | > 4 | > 4 | – | –
COC(=O)C#Cc1cc(N(C)C)c2c(c1O)C(=O)C1=C(O)[C@]3(O)C(=O)C(C(N)=O)=C(O)C(N(C)C)[C@@H]3C[C@@H]1C2 (stereo partly drawn) [CY] | > 4 | < 4 | – | –
Cc1ccc(S(=O)(=O)NCC#Cc2cc(N(C)C)c3c(c2O)C(=O)C2=C(O)[C@]4(O)C(=O)C(C(N)=O)=C(O)C(N(C)C)[C@@H]4C[C@@H]2C3)cc1 (stereo partly drawn) [CZ] | > 4 | > 4 | – | –
CN(C)c1cc(NC(=S)Nc2ccc([N+](=O)[O-])cc2)c(O)c2c1C[C@H]1C[C@H]3[C@H](N(C)C)C(O)=C(C(N)=O)C(=O)[C@@]3(O)C(O)=C1C2=O [DA] | > 4 | < 4 | – | –
CN(C)c1cc(NC(=O)Nc2ccc(F)c([N+](=O)[O-])c2)c(O)c2c1C[C@H]1C[C@H]3[C@H](N(C)C)C(O)=C(C(N)=O)C(=O)[C@@]3(O)C(O)=C1C2=O [DB] | > 4 | < 4 | – | –
CN(C)c1cc(NC(=O)Nc2ccc(Cl)cc2[N+](=O)O)c(O)c2c1C[C@H]1C[C@H]3[C@H](N(C)C)C(O)=C(C(N)=O)C(=O)[C@@]3(O)C(O)=C1C2=O [DC] | > 4 | < 4 | – | –
CN(C)c1cc(NC(=O)Nc2cccc(F)c2)c(O)c2c1C[C@H]1C[C@H]3[C@H](N(C)C)C(O)=C(C(N)=O)C(=O)[C@@]3(O)C(O)=C1C2=O [DD] | > 4 | < 4 | – | –
CN(C)[C@@H]1C(O)=C(C(N)=O)C(=O)[C@@]2(O)C(O)=C3C(=O)c4c(O)c(CN)cc(-c5cccc([N+](=O)O)c5)c4C[C@H]3C[C@@H]12 [DE] | > 4 | < 4 | – | –
CN(C)[C@@H]1C(O)=C(C(N)=O)C(=O)[C@@]2(O)C(O)=C3C(=O)c4c(O)c(CN)cc(-c5ccc(F)cc5)c4C[C@H]3C[C@@H]12 [DF] | > 4 | < 4 | – | –
CCCCCc1ccc(O)c2c1C[C@H]1C[C@H]3[C@H](N(C)C)C(O)=C(C(N)=O)C(=O)[C@@]3(O)C(O)=C1C2=O [DG] | > 4 | < 4 | – | –
CC(C)S(=O)(=O)NCC#Cc1cc(N(C)C)c2c(c1O)C(=O)C1=C(O)[C@]3(O)C(=O)C(C(N)=O)=C(O)[C@@H](N(C)C)[C@@H]3C[C@@H]1C2 [DI] | > 4 | > 4 | – | –
CCCC#Cc1ccc(O)c2c1C[C@H]1C[C@H]3[C@H](N(C)C)C(O)=C(C(N)=O)C(=O)[C@@]3(O)C(O)=C1C2=O [DK] | > 4 | > 4 | – | –
CCCCOC(=O)C#Cc1cc(N(C)C)c2c(c1O)C(=O)C1=C(O)[C@]3(O)C(=O)C(C(N)=O)=C(O)[C@@H](N(C)C)[C@@H]3C[C@@H]1C2 [DL] | > 4 | > 4 | – | –
CCc1ccc(O)c2c1C[C@H]1C[C@H]3[C@@H](N(C)C)C(O)=C(C(N)=O)C(=O)[C@@]3(O)C(O)=C1C2=O [DM] | > 4 | < 4 | – | –
CN(C)c1ccc(O)c2c1C[C@H]1C[C@H]3[C@H](N(C)C)C(O)=C(C(=O)NCNC(=O)CCl)C(=O)[C@@]3(O)C(O)=C1C2=O [DN] | > 4 | < 4 | – | –
CN(C)c1cc(NC(=O)Oc2ccc(Cl)cc2)c(O)c2c1C[C@H]1C[C@H]3[C@H](N(C)C)C(O)=C(C(N)=O)C(=O)[C@@]3(O)C(O)=C1C2=O [DP] | – | – | > 4 | > 4

— patent US20150141381A1, “TETRACYCLINE COMPOUNDS HAVING TARGET THERAPEUTIC ACTIVITIES” (Paratek Pharmaceuticals, Inc., priority 2001, published 2015)
